Literature values, collected in patent US20060099208A1, “Method of potentiating the therapeutic action of monoclonal and polyclonal antibodies” (priority 2004, published 2006).
“Also recorded” adds a separate entry of the source. Read-outs that look alike come from different tables or passages of the source.

Legend:
tumor cells [1] = settings: PUFA combined with anti-cancer drug
tumor cells [2] = settings: in-vitro; for killing of tumor cells: tumor cells and normal cells from American Type Culture Collection
tumor cells [3] = settings: mixed culture, normal and tumor cells grown together
skin papilloma = settings: mice; pure fatty acid or fatty acid rich oils
hepatoma = settings: rats; pure fatty acid or fatty acid rich oils
ascitic tumor cells = settings: experimental animals; pure fatty acid or fatty acid rich oils

| Compound | survival of normal cells (normal cells; in-vitro) | cytotoxic action of anti-cancer drugs doxorubicin, vincristine and cis-platinum (tumor cells [1]) | tumor cell proliferation (tumor cells [2]) | killing of tumor cells (tumor cells [2]) | selective tumoricidal action (tumor cells [3]) | growth of skin papilloma (skin papilloma) | formation and growth of hepatoma (hepatoma) | growth of ascitic tumor cells in the peritoneum (ascitic tumor cells) | side effects (colon cancer; human, in vivo) | extension of colon cancer patients' lives (colon cancer; in combination with chemotherapy, trial of 900 patients) [months] | survival of normal cells (normal cells) |
| --- | --- | --- | --- | --- | --- | --- | --- | --- | --- | --- | --- |
| CC/C=C\C/C=C\C/C=C\C/C=C\C/C=C\CCCC(=O)O [EPA, eicosapentaenoic acid] | without having any significant action | can be augmented | – | – | – | – | – | – | – | – | – |
| CCCCC/C=C\C/C=C\C/C=C\C/C=C\CCCC(=O)O [AA, arachidonic acid] | without having any significant action | can be augmented | decrease tumor cell proliferation | only tumor cells were killed; also recorded: selectively kill the tumor cells | effective to some extent | inhibit the growth | inhibit | inhibit | – | – | – |
| Avastin: humanized monoclonal antibody to VEGF developed by Genentech | – | – | – | – | – | – | – | – | many side effects | 5 | – |
| CCCCC/C=C\C/C=C\C/C=C\CCCCCCC(=O)O [DGLA, dihomo-GLA] | – | – | decrease tumor cell proliferation | only tumor cells were killed; also recorded: selectively kill the tumor cells | – | inhibit the growth | inhibit | inhibit | – | – | without having any significant action |
| CCCCC/C=C\C/C=C\C/C=C\CCCCC(=O)O [GLA, gamma-linolenic acid] | without having any significant action | can be augmented | decrease tumor cell proliferation | only tumor cells were killed; also recorded: selectively kill the tumor cells | – | – | inhibit | inhibit | – | – | – |
| CC/C=C\C/C=C\C/C=C\C/C=C\C/C=C\C/C=C\CCC(=O)O [DHA, docosahexaenoic acid] | without having any significant action | can be augmented | – | – | – | – | – | – | – | – | – |
